Source: PubChem BioAssay AID179 (DTP/NCI, 2004)
Where “and” joins values, the source holds several entries; their conditions need not be identical. Equal entries are not always repeated. Calls of active or inactive are those of the source.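 Rule for the calls: active = compounds giving half or more protection of infected cells from virus-caused growth loss, again on retest; inactive = the rest.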

Test system: CEM cells HIV-1 protection, formazan growth assay
Assay: NCI AIDS Antiviral Assay
Settings: for IC50: measured here: growth of uninfected CEM cells
In short: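 Category rules: moderately active means at least 50% protection on retest, and confirmed active means 100% protection reproducibly. The underlying data came from a formazan growth assay in HIV-1-infected CEM cells.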

| SMILES | EC50 [µM] | IC50 | outcome |
| --- | --- | --- | --- |
| O=C(O)/C=C\CCCCC(=O)O | > 1450 | > 1450 µM |  |
| CC1NOC(=O)C1N=Nc1ccccc1Br (stereo not drawn) | > 66.1 | 63.1 µM |  |
| C=C(/C=N/N(C)C)CC1c2c(O)ccc3cccc(c23)N1S(=O)(=O)c1ccc(C)cc1 (stereo not drawn) | > 10.7 | > 10.7 µM |  |
| COC(=O)[C@@H](COC(=O)/C=C/c1ccc(OC(C)=O)c(OC(C)=O)c1)NC(=O)/C=C/c1ccc(OC(C)=O)c(OC(C)=O)c1 | > 100 | 19.1 µM |  |
| Cn1c(=O)c2sc3cc4c(cc3c2c2ccccc21)sc1c(=O)n(C)c2ccccc2c14 | > 100 | 61.7 µM |  |
| Nc1ccc(Nc2cc(=O)[nH]c(=O)[nH]2)cc1 | > 200 | > 200 µM |  |
| O=[N+]([O-])C(=C(Nc1ccccc1)Nc1ccccc1)C(Cl)=C(Cl)Cl | > 200 | 17.4 µM |  |
| O=S1(=O)CC2C3CC(Oc4ccccc4)C(C3)C2C1 (stereo not drawn) | > 107 | > 107 µM |  |
| C=CC1(c2ccc3ccccc3c2)OCC(CC)(CC)CO1 | > 200 | 79.4 µM |  |
| CN(C)CC1CCCCCCCCCCC1=O (stereo not drawn) | > 200 | 117 µM and 93.3 µM |  |
| CC(=O)Nc1ccc(C(=O)NN2C(=O)CSC2c2ccc(O)cc2)cc1 (stereo not drawn) | > 36.3 | > 36.3 µM |  |
| N#Cc1cc2cccn2c2c1cnn2-c1ccccc1 | > 200 | 43.7 µM |  |
| N#CC=Cc1ccc([N+](=O)[O-])s1 (mixture of isomers) | > 2 | 0.166 µM |  |
| CC(C)N1[C@@H]2CCCC[C@H]2N(C(C)C)[P+]1=O | > 200 | > 200 µM |  |
| Cc1c(CCCl)c(N=[N+]=[N-])n2c(nc3ccccc32)c1C#N | > 200 | 11 µM |  |
| COc1ccc(/C(Cl)=C/c2ccc(Cl)c(Cl)c2)cc1 | > 200 | > 200 µM |  |
| C/C(=N\NC(=S)N1CCCCC1)c1cccc(C)n1 | > 0.2 | 0.00617 µM |  |
| CC1(C)C(=O)/C=C\C(=O)C(C)(C)C2=CC=C(O2)C(C)(C)C(=O)C(Br)C(Br)C(=O)C(C)(C)C2=CC=C1O2 (stereo not drawn) |  |  | inactive |
| Cc1cc(N(CCC#N)CCC#N)ccc1/C=C(\NC(=O)/C=C/c1ccccc1)C(=O)NN |  |  | inactive |
| CCOP(=O)(OCC)C(C)(CC)/N=C(\N)NC#N (stereo not drawn) | > 200 | > 200 µM |  |
| CCOC(=O)/C(=C\c1cccc(Cl)c1)P(=O)(OCC)OCC | > 380 | 81.3 µM |  |
| O=C1NC2c3c(I)sc(I)c3/C(=N\O)C2O1 (stereo not drawn) | > 200 | 16.2 µM |  |

| SMILES | EC50 [µM] | IC50 | outcome |
| --- | --- | --- | --- |
| O=Cc1nc2ccccc2s1 |  |  | inactive |
| CCCCCCCCCCCCCCCCCCCCOC1OC(CO)C(O)C(O)C1O (stereo not drawn) | > 3.63 | > 3.63 µM |  |
| O=C(CC(=O)Nc1cccc(Cl)c1)NNCC(=O)Nc1nnc(-c2ccccc2)s1 | > 22.4 | > 22.4 µM |  |
| CCOC(=N)CCCSSc1ccc(N=[N+]=[N-])cc1 | > 200 | 25.7 µM |  |
| C/C(N=NC(=S)N1CCCCCC1)=C1\C=CC=CN1O | > 123 | 2.14 µM |  |
| CC=C(c1cc(Br)c(OC)c(C(=O)OC)c1)c1cc(Br)c(OC)c(C(=O)OC)c1 | > 200 | 13.5 µM |  |
| C[CH2][Pb]([CH2]C)([CH2]C)[O]C(=O)COc1ccc(Cl)cc1Cl | > 2 | 0.575 µM |  |
| COC(=O)[C@@H]1[C@H]2CC[C@]3(C)[C@@H](OC(C)=O)CC[C@H]3[C@@H]2CC[C@H]1C1(C)SCCS1 | 10 | 24 µM |  |
| COC(=O)c1cc(=O)nc(NN)s1 | > 50.1 | > 50.1 µM |  |
| O=C(Nc1cccc2c1C(=O)c1c(NC(=O)c3ccccc3)ccc(Nc3cccc4c3C(=O)c3ccccc3C4=O)c1C2=O)c1ccccc1 | > 200 | 120 µM |  |
| COC(=O)N/N=C(/CCN1CCCC1)CC(c1ccccc1)c1c(O)c2ccccc2oc1=O (stereo not drawn) | > 89.1 | 83.2 µM |  |
| O=C1CN(CCc2ccccc2)CC(=O)N2C(c3ccccc3)CCCN12 (stereo not drawn) |  |  | inactive |
| CCOC(=O)/C(C#N)=C/c1ccc(Br)cc1 | > 93.3 | > 93.3 µM |  |
| Cc1c(O)c2ccccc2oc1=O | > 200 | > 200 µM |  |
| CN(C)c1nc(=NCc2cccs2)ss1 | > 200 | 17.4 µM |  |
| O=C1Cc2cn[nH]c2-c2ccccc2N1 |  |  | inactive |
| COc1ccc2c(c1)CC1(O)COc3cc(OC)ccc3C1O2 (stereo not drawn) | > 200 | 67.6 µM |  |
| O=S1(=O)C(c2cccc(F)c2)=C(O)c2cc3ccccc3nc21 |  |  | inactive |
| CN1OC(C#N)(C#N)C(C#N)(C#N)C1c1ccccc1 (stereo not drawn) | > 200 | > 200 µM |  |
| CCN(CC)CC(O)CNc1c2ccc([N+](=O)[O-])cc2nc2cc(OC)c(OC)cc12 (stereo not drawn) |  |  | inactive |
| Cc1ccc(Nc2[nH]c(=O)[nH]c(=O)c2C)cc1Cl | > 200 | 158 µM |  |
| CCc1nc(N)nc(N)c1-c1ccc(Cl)c(Cl)c1 | > 200 | 1.45 µM |  |

| SMILES | EC50 [µM] | IC50 | outcome |
| --- | --- | --- | --- |
| O=C1C(Cl)=C(Cl)C(=O)N1c1ccccc1Cl |  |  | inactive |
| COc1cc(CN(C)N2C(=O)c3cccc4cc([N+](=O)[O-])cc(c34)C2=O)cc(OC)c1OC |  |  | inactive |
| NC(N)=NS(N)(=O)=O | > 200 | > 200 µM |  |
| Cc1ccc(S(=O)(=O)c2ccccc2)cc1 | > 155 | > 155 µM |  |
| CN(C)CCNC(=O)c1ccc(NC(=O)c2nc([N+](=O)[O-])cn2C)cc1 | > 200 | 182 µM |  |
| CCOC(=O)NC(C(C(=O)OCC)C(=O)OCC)(C(F)(F)F)C(F)(F)F | > 200 | > 200 µM |  |
| COC1=CC=C2Nc3nc(N)[nH]c(=O)c3SC2N1 (stereo not drawn) | > 178 | > 178 µM |  |
| COc1ccc(C2OC2C(=O)C23CC4CC(CC(C4)C2)C3)cc1 (stereo not drawn) | > 200 | 52.5 µM |  |
| CCCCCCCCCCCCCCCCCC(=O)OCC(COC1OC(COS(=O)(=O)O)C(O)C(O)C1O)OC(=O)CCCCCCCCCCCCCCCCC (stereo not drawn) |  |  | inactive |
| CCCCNC(=O)n1ncc2cc([N+](=O)[O-])c([N+](=O)[O-])cc21 | > 200 | 25.7 µM |  |
| CC(=O)/C(=C\n1c(=S)[nH]c2ccccc21)C(=O)Nc1ccccc1 | > 200 | > 200 µM |  |
| CC(CCc1nc2ccccc2[nH]1)C1CCC2C3CC[C@@H]4C[C@H](O)CC[C@]4(C)C3C[C@H](O)[C@]12C (stereo partly drawn) | > 50.1 | 4.07 µM |  |
| O=C([N-]/N=C/c1ccccc1)c1ccccc1[O-].[OH3+].[Zn+2] | 162 | 166 µM |  |
| O=C(Nc1nc2ncn(CC(COc3ccccc3)OC(=O)c3ccccc3)c2c(=O)[nH]1)c1ccccc1 (stereo not drawn) | > 70.8 | > 70.8 µM |  |
| Cc1cc(NC(=O)Nc2cc(F)ccc2F)no1 | > 200 | 123 µM |  |
| C[C@]12CC[C@H](O)CC1=CC[C@@H]1[C@@H]2CC[C@]2(C)/C(=N/OCCN3CCCC3)CC[C@@H]12 | > 200 | 9.33 µM |  |
| COc1ccc(C2SC(N)=Nc3c2c(C)nn3C(=O)c2ccc(Cl)cc2)cc1 (stereo not drawn) | > 200 | 151 µM |  |
| CN1CCN=C1c1nnn(-c2ccc([N+](=O)[O-])cc2)c1-c1ccccc1 | 57.5 | 145 µM |  |
| O=c1oc2cc(O)ccc2c(O)c1C(c1ccc(C(c2c(O)c3ccc(O)cc3oc2=O)c2c(O)c3ccc(O)cc3oc2=O)cc1)c1c(O)c2ccc(O)cc2oc1=O | > 200 | 91.2 µM |  |
| CC1=C(C(=O)Nc2ccccc2)C(c2ccc(C3C(C(=O)Nc4ccccc4)=C(C)NC(C)=C3C(=O)Nc3ccccc3)cc2)C(C(=O)Nc2ccccc2)=C(C)N1 | > 12.9 | 2.4 µM |  |
